Data set [1] deals with Cannabinoid receptor 1 (Mus musculus) (UniProt P47746). As to the kind of experiment: Antagonist activity at CB1R in C57Bl/6Jhsd mouse cortex membrane assessed as inhibition of [35S]GTPgammaS binding incubated for 1 hr by liquid scintillation counter analysis. Format: functional, cell membranes. As to conditions: filed as antagonist. (In general: GTPγS is a poorly hydrolysed GTP analogue; its binding reports G protein activation.)

For data set [2] the target is unchanged. As to the kind of experiment: Inverse agonist activity at CB1R in C57Bl/6Jhsd mouse cortex membrane assessed as inhibition of [35S]GTPgammaS binding incubated for 1 hr by liquid scintillation counter analysis. The format is functional, cell membranes. The following applies: filed as inverse agonist.
Data set [3] concerns Mus musculus. Nature of the data set: Inhibition of WIN55212-induced catalepsy in male C57Bl/6J mouse at 10 mg/kg, po. Format: functional, organism-based.
Data set [4] in a line: Toxicity in male C57Bl/6J mouse assessed as CNS-mediated hyperactivity at 1 to 10 mg/kg, po. The format is organism-based. The following applies: in vivo, dose 1-10 mg/kg.
Data set [5] deals with Mus musculus. As to the kind of experiment: Anti-obese activity in diet-induced obese male C57Bl/6J mouse model assessed as decrease in body weight at 1 mg/kg/day, po treated for 24 days. The following applies: time 24.0 day. The format is functional, organism-based.
The test system of data set [6] is Mus musculus. Nature of the data set: Anti-obese activity in diet-induced obese male C57Bl/6J mouse model assessed as reduction in ALP level at 1 mg/kg/day, po treated for 24 days. Format: functional, organism-based. The following applies: time 24.0 day.
The test system of data set [7] is Mus musculus. As to the kind of experiment: Anti-obese activity in diet-induced obese male C57Bl/6J mouse model assessed as reduction in ALT level at 1 mg/kg/day, po treated for 24 days. The format is functional, organism-based. The following applies: time 24.0 day.
Data set [8] is described as follows: Stability in SGF at pH 1.2 by HPLC analysis. Format: physicochemical. As to conditions: simulated gi fluid.
Data set [9] has as its system Mus musculus. Nature of the data set: Anti-obese activity in diet-induced obese male C57Bl/6J mouse model assessed as reduction in liver triglyceride content at 1 mg/kg/day, po treated for 24 days. The format is functional, organism-based. As to conditions: time 24.0 day.
Data set [10] can be described thus: Stability in SIF at pH 6.8 by HPLC analysis. The following applies: simulated gi fluid. Format: physicochemical.
Data set [11] concerns Mus musculus. Nature of the data set: Anti-obese activity in diet-induced obese male C57Bl/6J mouse model assessed as reduction in hypertriglyceridemia at 1 mg/kg/day, po treated for 24 days. Format: functional, organism-based. As to conditions: time 24.0 day.
Data set [12] has as its system Mus musculus. Nature of the data set: Anti-obese activity in diet-induced obese male C57Bl/6J mouse model assessed as reduction in glucose level in fasting condition at 1 mg/kg/day, po treated for 24 days. Format: functional, organism-based. The following applies: time 24.0 day.
The subject of data set [13] is Mus musculus. Nature of the data set: Inhibition of HU-210-induced hypoactivity in male C57Bl/6J mouse at 1 to 10 mg/kg, po. The format is functional, organism-based. As to conditions: dose 1-10 mg/kg.
Data set [14] relates to Mus musculus. As to the kind of experiment: Anti-obese activity in diet-induced obese male C57Bl/6J mouse model assessed as reversal of hepatocellular damage at 1 mg/kg/day, po treated for 24 days by H and E staining based analysis. The format is functional, organism-based. As to conditions: time 24.0 day.
In data set [15] the test system is Mus musculus. Nature of the data set: Anti-obese activity in diet-induced obese male C57Bl/6J mouse model assessed as reduction in AST level at 1 mg/kg/day, po treated for 24 days. The format is functional, organism-based. The following applies: time 24.0 day.
Data set [16] deals with Mus musculus. As to the kind of experiment: Anti-obese activity in diet-induced obese male C57Bl/6J mouse model assessed as reversal of hepatic steatosis at 1 mg/kg/day, po treated for 24 days by H and E staining based analysis. Format: functional, organism-based. As to conditions: time 24.0 day.
A short description of data set [17]: Mutagenicity in Salmonella typhimurium TA100 incubated for 48 to 72 hrs in presence of liver S9 fraction by mini-Ames test. The format is toxicity, subcellular. As to conditions: salmonella enterica subsp. enterica serovar typhimurium, time 48-72 hrs. (In general: In the Ames test, an excess of revertant colonies over the control signals mutagenicity.)
For data set [18], the system named is Mus musculus. As to the kind of experiment: Anti-obese activity in diet-induced obese male C57Bl/6J mouse model assessed as increase in lean body mass at 1 mg/kg/day, po treated for 24 days by EchoMRI analysis. Format: functional, organism-based. As to conditions: time 24.0 day.
Data set [19] relates to Mus musculus. Nature of the data set: Anti-obese activity in diet-induced obese male C57Bl/6J mouse model assessed as decrease in total body fat at 1 mg/kg/day, po treated for 24 days by EchoMRI analysis. The format is functional, organism-based. The following applies: time 24.0 day.
Data set [20] in a line: Mutagenicity in Salmonella typhimurium TA98 incubated for 48 to 72 hrs in presence of liver S9 fraction by mini-Ames test. As to conditions: salmonella enterica subsp. enterica serovar typhimurium, time 48-72 hrs. Format: toxicity, subcellular.
A short description of data set [21]: Protein binding in mouse brain at 1 uM measured after 5 hrs by equilibrium dialysis method. Format: ADME, tissue-based. On the technique in general: In equilibrium dialysis only unbound substance equilibrates across the membrane.
Data set [22] deals with Mus musculus. As to the kind of experiment: Anti-obese activity in diet-induced obese male C57Bl/6J mouse model assessed as reduction in hypercholesterolemia at 1 mg/kg/day, po treated for 24 days. The following applies: time 24.0 day. Format: functional, organism-based.
Data set [23] can be described thus: Toxicity in male C57Bl/6J mouse assessed as change in locomotor activity at 1 to 10 mg/kg, po. Format: organism-based. The following applies: in vivo, dose 1-10 mg/kg.

Each structure is given as a SMILES string. Active and inactive are the calls of the source. The calls are words filed in the database; no cut-off is given here.

Cannabinoid receptor 1 (Mus musculus), sequence (P47746 whole entry): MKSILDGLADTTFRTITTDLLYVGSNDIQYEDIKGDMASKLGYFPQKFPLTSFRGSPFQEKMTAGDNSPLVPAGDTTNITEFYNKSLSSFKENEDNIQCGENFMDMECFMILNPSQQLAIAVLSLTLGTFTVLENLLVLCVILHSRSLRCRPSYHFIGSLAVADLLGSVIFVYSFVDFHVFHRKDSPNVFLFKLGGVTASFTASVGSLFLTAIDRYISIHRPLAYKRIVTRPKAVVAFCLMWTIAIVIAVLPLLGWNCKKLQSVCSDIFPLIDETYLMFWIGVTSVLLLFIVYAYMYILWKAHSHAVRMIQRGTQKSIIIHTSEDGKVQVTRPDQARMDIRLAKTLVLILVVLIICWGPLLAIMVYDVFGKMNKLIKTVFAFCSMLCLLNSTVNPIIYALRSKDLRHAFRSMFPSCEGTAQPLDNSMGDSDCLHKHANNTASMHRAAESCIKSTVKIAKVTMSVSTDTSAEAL

On to `CNC(=O)N[C@H]1CCCOc2c1nn(-c1ccccc1Cl)c2-c1ccc(Cl)cc1`, for which, in [1], the Activity result is “Active; Compound Exhibited As Neutral Antagonist”.

Take `CS(=O)(=O)N[C@H]1CCCOc2c1nn(-c1ccccc1Cl)c2-c1ccc(Cl)cc1`: the Activity entry in [1] is listed as “Active; Compound Exhibited As Neutral Antagonist”.

For the molecule `Cc1ccc(S(=O)(=O)N[C@H]2CCCOc3c2nn(-c2ccccc2Cl)c3-c2ccc(Cl)cc2)cc1`, the result in data set [2] was Active.

For the molecule `Cc1c(C(=O)NN2CCCCC2)nn(-c2ccc(Cl)cc2Cl)c1-c1ccc(Cl)cc1`, the inhibition result in the data set on Mus musculus [3] was “Active”.

Turning to `O=S(=O)(N[C@H]1CCCOc2c1nn(-c1ccccc1Cl)c2-c1ccc(Cl)cc1)c1ccc(Cl)cc1`, the Activity result is listed as “Non-toxic” in data set [4]; “Active; Compound Exhibited As Neutral Antagonist” in [1]; “Non-toxic” in data set [17]; “Non-toxic” in [20]; “Non-toxic” in [23]. Also, the outcome with Mus musculus [5], in the data set with Mus musculus [6], with Mus musculus [7], in the data set with Mus musculus [9], in the data set with Mus musculus [11] and in the data set on Mus musculus [12] was Active. The outcome in the data set with Mus musculus [14], with Mus musculus [15], with Mus musculus [16], with Mus musculus [18], in the data set on Mus musculus [19] and in the data set on Mus musculus [22] was Active. Moreover, the Stability entry in [8] and in [10] was “Stable” in each case. Further, in the data set on Mus musculus [13], the inhibition result is “inactive”. Moreover, the PB result in [21] is listed as “Active”.

These data come from ChEMBL document CHEMBL6177974, “Synthesis and Pharmacological Characterization of Novel Peripheral Cannabinoid-1 Receptor Blockers Based on a Tricyclic Scaffold” (J Med Chem, 2025).
